Experimental data: patent US20230293453A1, “SPERMIDINE AND USES THEREOF” (TLL THE LONGEVITY LABS GMBH, priority 2020, published 2023)

Experiments:
[1] = system: ZSF1 obese rats; test: Fasting glucose determination, cardiometabolic syndrome model; type: in vivo, rat; details: 10 weeks of treatment (8 weeks vs. 18 weeks of age), tail vein blood, FIG. 6a
Experimental: (§1) Cardiometabolic syndrome model: ZSF1 lean and obese rats of both genders were purchased at the age of 5 weeks from the Charles River Laboratories (Kingston, USA). Eight-week-old ZSF1 obese rats were divided into three weight-matched and equally sized/gender-balanced groups: group 1 received regular drinking water (non-treated control), group 2 received regular drinking water supplemented with 40 mM nicotinamide (i.e. 0.5% w/v), and group 3 was administered the combination of 40 mM nicotinamide and 3 mM spermidine (of synthetical origin) in drinking water for a period of 14 weeks. Water as well as food intake were monitored regularly. Age-matched untreated ZSF1 obese and lean rats served as controls.
The basal fasting blood glucose level was determined by collecting a drop of blood from the tail vein. Blood droplet was applied to a test strip that was inserted into a glucose analyzer (glucometer, Accu-Chek Performa). The sampling and measurement was conducted at the age of 8 weeks (baseline) and at the age of 18 weeks. The fold-change was calculated by dividing the values form 18-weeks old animals and 8-weeks old animals.

[2] = system: ZSF1 obese rats; test: Fasting insulin determination (ELISA), cardiometabolic syndrome model; type: in vivo, rat; details: 10 weeks of treatment (8 weeks vs. 18 weeks of age), plasma, 6-h fasted, FIG. 6b
Experimental: as §1
Fasted blood samples were collected from the clavicular vena plexus/jugular vein of 6-h fasted (6 AM-12 AM) and lightly anesthetized rats (2% isoflurane and 98% O2), whose body temperature was maintained at 37° C. using a temperature-controlled heating platform. Fasting insulin was measured in plasma using ultrasensitive rat ELISA kits (Crystal Chem) according to the manufacturer's protocol. The sampling and measurement was conducted at the age of 8 weeks (baseline) and at the age of 18 weeks. The fold-change was calculated by dividing the values form 18-weeks old animals and 8-weeks old animals.

[3] = system: obese rats; test: Intraperitoneal glucose tolerance test, spermidine alone in obese rats; type: in vivo, rat; details: 10 weeks of spermidine alone, 1 g/kg glucose i.p., 12-h fasted, age 18 weeks, compared with control obese rats, FIG. 8
Experimental: Intraperitoneal glucose tolerance test was performed at 6 AM from 12-h fasted rats. During the experiment, rats were singly housed in empty cages without food, water or bed-ding. The basal fasting blood glucose level was determined by collecting a drop of blood from the tail vein. Blood droplet was applied onto a test strip that was inserted into a glucose analyzer (glucometer, Accu-Chek Performa). Rats were then injected intraperitoneally with 1 g of glucose per kg fasting body mass, and blood glucose levels were determined 15, 30, 60, 90 and 120 min after glucose. The sampling and measurement were conducted at the age of 18 weeks.

[4] = system: ZSF1 obese rats; test: Myocardial nicotinamide and NAD+ levels by mass spectrometry, cardiometabolic syndrome model; type: in vivo, rat; details: 40 mM nicotinamide, with or without 3 mM spermidine, in drinking water for 14 weeks
Experimental: Cardiometabolic syndrome model: ZSF1 lean and obese rats of both genders were purchased at the age of 5 weeks from the Charles River Laboratories (Kingston, USA). Eight-week-old ZSF1 obese rats were divided into three weight-matched and equally sized/gender-balanced groups: group 1 received regular drinking water (non-treated control), group 2 received regular drinking water supplemented with 40 mM nicotinamide (i.e. 0.5% w/v), and group 3 was administered the combination of 40 mM nicotinamide and 3 mM spermidine (of synthetical origin) in drinking water for a period of 14 weeks. Water as well as food intake were monitored regularly. Age-matched untreated ZSF1 obese and lean rats served as controls. The mass spectrometric metabolomic analysis of nicotinamide and NAD^+ in rat myocardium was performed as described previously ([…]., et al. Aging (Albany NY) 11(2019):4783-4800). About 30 mg of tissue was weighed and solubilized in tubes with ceramic beads using 1 ml of cold lysate buffer (methanol:water ratio was 9:1; at -20° C.). Tissue samples were then homogenized three times for 20 s at 5.500 rpm using a Precellys 24 tissue homogenizer followed by centrifugation for 10 min at 15.000 g and 4° C. […] Peak detection and integration of the analytes were performed using the Agilent Mass Hunter quantitative software (B.07.01). […]

[5] = system: Aged C57BL/6J male mice; test: Diastolic function by echocardiography, aging model; type: in vivo, mouse; details: 24 mM nicotinamide, with or without 3 mM spermidine, in drinking water for 4 months, FIG. 2a
Experimental: Aging model: Aged C57BL/6J male mice were purchased from the Charles River Laboratories (Sulzfeld, Germany) at the age of 18 months and fed standard chow. Supplementation of 24 mM nicotinamide (i.e. 0.3% w/v, changed two times per week) and of spermidine (i.e. 3 mM final concentration at pH 7.2, changed two times per week) in the regular drinking water was conducted at 20 months of age for a period of 4 months. […] Transthoracic echocardiography was performed using high resolution micro-imaging system equipped with a 24- and 55-MHz linear array transducers for rats and mice, respectively, as described (Eisenberg et al. (2016), Nat Med 22(12): 1428-1438). Briefly, lightly anesthetized mice (0.5% isoflurane and 99.5% 02) were placed in the supine position on a temperature-controlled heating platform to maintain their body temperature at 37° C. Diastolic function was assessed using pulsed-wave and tissue Doppler imaging to determine the ratio between peak early-filling velocity of transmitral flow (E) and the corresponding mitral valve annulus velocity (e′), respectively.

[6] = system: Dahl salt-sensitive male rats; test: Diastolic function by hemodynamic pressure-volume measurement, salt-induced hypertensive heart disease model; type: in vivo, rat; details: Dahl rats on high-salt diet; 40 mM nicotinamide in drinking water for 12 weeks; FIG. 2b
From the text: Salt-induced hypertensive heart disease model: Dahl salt-sensitive male rats (n=24) were purchased at the age of 4 weeks from the Charles River Laboratories (Kingston, USA). Eight rats were fed the low-salt diet containing 0.3% NaCl (AIN-76A, Research Diets, Inc. USA) throughout the experiment and served as a healthy control group. Low-salt diet was fed also to the remaining 16 Dahl rats until the age of 7 weeks, when the diet was switched to a high-salt diet (AIN-76A with 8% NaCl, Research Diets, Inc. USA), and the rats were divided into two weight-matched cohorts each consisting of two equally sized groups (n=8 animals per group); group 1 received regular drinking water (non-treated control), while group 2 received regular drinking water supplemented with 40 mM nicotinamide (i.e. 0.5% w/v) for a period of 12 weeks. […] The heart rate was monitored by an electrocardiogram (Animal Bio Amp, FE136) and kept at 350-400 bpm throughout the experiment. […] Signals were continuously acquired (MPVS PL3508 PowerLab 8/35), digitized at 2 kHz (ML880 PowerLab 16/30), and analyzed offline (LabChart 8 Pro). After a stabilization period of 10 min, left ventricular end-diastolic pressure (EDP), a baseline parameter of diastolic function, was measured and aver-aged from ten consecutive beats, with ventilation suspended at end-expiration. […]

[7] = system: ZSF1 obese rats; test: Diastolic function by echocardiography, cardiometabolic syndrome model; type: in vivo, rat; details: 40 mM nicotinamide, with or without 3 mM spermidine, in drinking water for 14 weeks, FIG. 2c
Experimental: Cardiometabolic syndrome model: ZSF1 lean and obese rats of both genders were purchased at the age of 5 weeks from the Charles River Laboratories (Kingston, USA). Eight-week-old ZSF1 obese rats were divided into three weight-matched and equally sized/gender-balanced groups: group 1 received regular drinking water (non-treated control), group 2 received regular drinking water supplemented with 40 mM nicotinamide (i.e. 0.5% w/v), and group 3 was administered the combination of 40 mM nicotinamide and 3 mM spermidine (of synthetical origin) in drinking water for a period of 14 weeks. Water as well as food intake were monitored regularly. Age-matched untreated ZSF1 obese and lean rats served as controls. Transthoracic echocardiography was performed using high resolution micro-imaging system equipped with a 24- and 55-MHz linear array transducers for rats and mice, respectively, as described (Eisenberg et al. (2016), Nat Med 22(12): 1428-1438). […] Diastolic function was assessed using pulsed-wave and tissue Doppler imaging to determine the ratio between peak early-filling velocity of transmitral flow (E) and the corresponding mitral valve annulus velocity (e′), respectively. This measurement was conducted according to the method of item 2.1.1, with the exception that the rats were lightly anesthetized with 1-2% isoflurane and 98-99% 02.

[8] = system: Aged C57BL/6J male mice; test: Cardiac hypertrophy by gravimetry, aging model; type: in vivo, mouse; details: 24 mM nicotinamide, with or without 3 mM spermidine, in drinking water for 4 months, FIG. 3a
Experimental: Aging model: Aged C57BL/6J male mice were purchased from the Charles River Laboratories (Sulzfeld, Germany) at the age of 18 months and fed standard chow. Supplementation of 24 mM nicotinamide (i.e. 0.3% w/v, changed two times per week) and of spermidine (i.e. 3 mM final concentration at pH 7.2, changed two times per week) in the regular drinking water was conducted at 20 months of age for a period of 4 months. […] The heart was harvested and weighed, obtaining the heart weight (HW). For normalisation, the weight was subsequently divided by the length of the left tibia bone (TL), resulting in the ratio HW/TL.

[9] = system: Dahl salt-sensitive male rats; test: Cardiac hypertrophy by gravimetry, salt-induced hypertensive heart disease model; type: in vivo, rat; details: Dahl rats on high-salt diet; 40 mM nicotinamide in drinking water for 12 weeks; FIG. 3b
From the text: Salt-induced hypertensive heart disease model: Dahl salt-sensitive male rats (n=24) were purchased at the age of 4 weeks from the Charles River Laboratories (Kingston, USA). Eight rats were fed the low-salt diet containing 0.3% NaCl (AIN-76A, Research Diets, Inc. USA) throughout the experiment and served as a healthy control group. Low-salt diet was fed also to the remaining 16 Dahl rats until the age of 7 weeks, when the diet was switched to a high-salt diet (AIN-76A with 8% NaCl, Research Diets, Inc. USA), and the rats were divided into two weight-matched cohorts each consisting of two equally sized groups (n=8 animals per group); group 1 received regular drinking water (non-treated control), while group 2 received regular drinking water supplemented with 40 mM nicotinamide (i.e. 0.5% w/v) for a period of 12 weeks. The heart was harvested and weighed, obtaining the heart weight (HW). For normalisation, the weight was subsequently divided by the length of the left tibia bone (TL), resulting in the ratio HW/TL.

[10] = system: ZSF1 obese rats; test: Cardiac hypertrophy by gravimetry, cardiometabolic syndrome model; type: in vivo, rat; details: 40 mM nicotinamide, with or without 3 mM spermidine, in drinking water for 14 weeks, FIG. 3c
Experimental: Cardiometabolic syndrome model: ZSF1 lean and obese rats of both genders were purchased at the age of 5 weeks from the Charles River Laboratories (Kingston, USA). Eight-week-old ZSF1 obese rats were divided into three weight-matched and equally sized/gender-balanced groups: group 1 received regular drinking water (non-treated control), group 2 received regular drinking water supplemented with 40 mM nicotinamide (i.e. 0.5% w/v), and group 3 was administered the combination of 40 mM nicotinamide and 3 mM spermidine (of synthetical origin) in drinking water for a period of 14 weeks. Water as well as food intake were monitored regularly. Age-matched untreated ZSF1 obese and lean rats served as controls. The heart was harvested and weighed, obtaining the heart weight (HW). For normalisation, the weight was subsequently divided by the length of the left tibia bone (TL), resulting in the ratio HW/TL.

[11] = system: Dahl salt-sensitive male rats; test: Exercise capacity by exercise calorimetry, salt-induced hypertensive heart disease model; type: in vivo, rat; details: Dahl rats on high-salt diet; 40 mM nicotinamide in drinking water for 12 weeks; treadmill peak effort; FIG. 4a
From the text: Salt-induced hypertensive heart disease model: Dahl salt-sensitive male rats (n=24) were purchased at the age of 4 weeks from the Charles River Laboratories (Kingston, USA). Eight rats were fed the low-salt diet containing 0.3% NaCl (AIN-76A, Research Diets, Inc. USA) throughout the experiment and served as a healthy control group. Low-salt diet was fed also to the remaining 16 Dahl rats until the age of 7 weeks, when the diet was switched to a high-salt diet (AIN-76A with 8% NaCl, Research Diets, Inc. USA), and the rats were divided into two weight-matched cohorts each consisting of two equally sized groups (n=8 animals per group); group 1 received regular drinking water (non-treated control), while group 2 received regular drinking water supplemented with 40 mM nicotinamide (i.e. 0.5% w/v) for a period of 12 weeks. Rats were subjected to peak effort on a closed-chamber treadmill at an inclination of 10° coupled to a gas analyzer (CaloTreadmill). […] Calorimetric parameters, such as relative oxygen consumption (ΔVO2) and carbon dioxide production (ΔVCO2) were continuously measured at 0.2 Hz intervals during treadmill running. Maximal oxygen consumption (VO2max) and run distance were determined at the point at which oxygen uptake reached a plateau during exhaustive workout/exercise.

[12] = system: ZSF1 obese rats; test: Exercise capacity by exercise calorimetry, cardiometabolic syndrome model; type: in vivo, rat; details: 40 mM nicotinamide, with or without 3 mM spermidine, in drinking water for 14 weeks, treadmill peak effort, FIG. 4b
Experimental: Eight-week-old ZSF1 obese rats were divided into three weight-matched and equally sized/gender-balanced groups: group 1 received regular drinking water (non-treated control), group 2 received regular drinking water supplemented with 40 mM nicotinamide (i.e. 0.5% w/v), and group 3 was administered the combination of 40 mM nicotinamide and 3 mM spermidine (of synthetical origin) in drinking water for a period of 14 weeks. Water as well as food intake were monitored regularly. Age-matched untreated ZSF1 obese and lean rats served as controls. Rats were subjected to peak effort on a closed-chamber treadmill at an inclination of 10° coupled to a gas analyzer (CaloTreadmill). […] The exercise session ended at the maximal fatigue, which was defined as the lack of ability to maintain running speed despite being in contact with the electric shock for more than 5 seconds. Calorimetric parameters, such as relative oxygen consumption (ΔVO2) and carbon dioxide production (ΔVCO2) were continuously measured at 0.2 Hz intervals during treadmill running. Maximal oxygen consumption (VO2max) and run distance were determined at the point at which oxygen uptake reached a plateau during exhaustive workout/exercise.

[13] = system: Dahl salt-sensitive male rats; test: Lung congestion by gravimetry, salt-induced hypertensive heart disease model; type: in vivo, rat; details: Dahl rats on high-salt diet; 40 mM nicotinamide in drinking water for 12 weeks; FIG. 5a
From the text: Salt-induced hypertensive heart disease model: Dahl salt-sensitive male rats (n=24) were purchased at the age of 4 weeks from the Charles River Laboratories (Kingston, USA). Eight rats were fed the low-salt diet containing 0.3% NaCl (AIN-76A, Research Diets, Inc. USA) throughout the experiment and served as a healthy control group. Low-salt diet was fed also to the remaining 16 Dahl rats until the age of 7 weeks, when the diet was switched to a high-salt diet (AIN-76A with 8% NaCl, Research Diets, Inc. USA), and the rats were divided into two weight-matched […] groups (n=8 animals per group); group 1 received regular drinking water (non-treated control), while group 2 received regular drinking water supplemented with 40 mM nicotinamide (i.e. 0.5% w/v) for a period of 12 weeks.
(§2) The lung was harvested and weighed, obtaining the lung weight (LW). For normalisation, the weight was subsequently divided by the length of the left tibia bone (TL), resulting in the ratio LW/TL.

[14] = system: ZSF1 obese rats; test: Lung congestion by gravimetry, cardiometabolic syndrome model; type: in vivo, rat; details: 40 mM nicotinamide, with or without 3 mM spermidine, in drinking water for 14 weeks, FIG. 5b
Experimental: as §1, §2
This measurement was conducted according to the method of item 2.4.1.

[15] = literature: Gale et al. 2004, Chen et al. 2015, Poyan et al. 2018; cited from earlier work

Row | SMILES | fasting glucose level (fold-change 18 weeks vs 8 weeks) [1] | fasting insulin level (fold-change 18 weeks vs 8 weeks) [2] | glucose clearance curve (also as AUC) [3] | myocardial level of nicotinamide (NAM) ([4]; FIG. 1 left) | myocardial level of nicotinamide adenine dinucleotide+ (NAD+) ([4]; FIG. 1 right) | quotient E/e' (measure of diastolic dysfunction) [5] | left ventricular end-diastolic pressure (EDP), marker for diastolic dysfunction [6] | quotient E/e' (measure of diastolic dysfunction) [7] | heart weight-to-tibia length ratio (HW/TL), marker of cardiac hypertrophy [8] | heart weight-to-tibia length ratio (HW/TL), marker of cardiac hypertrophy [9] | heart weight-to-tibia length ratio (HW/TL), marker of cardiac hypertrophy [10] | maximal oxygen consumption (VO2max) [11] | run distance [11] | maximal oxygen consumption (VO2max) [12] | run distance [12] | ratio LW/TL (lung weight to tibia length), measure of lung congestion [13] | ratio LW/TL (lung weight to tibia length), measure of lung congestion [14] | tolerability at high doses during chronical administration [15]
1 | NCCCCNCCCN [spermidine] | no significant influence | no significant influence | did not change | – | – | – | – | – | – | – | – | – | – | – | – | – | – | –
2 | NC(=O)c1cccnc1 [nicotinamide] | increased | increased | – | significantly increased | significantly increased | reduced | reduced | reduced | reduced | reduced to levels similar to the control | reduced | increased | increased | increased | increased | decrease | compensated this effect | well-tolerated
